Test results published in US11890287B2, “Therapeutic compounds and compositions for treating social disorders and substance use disorders” (Kinoxis Therapeutics Pty Ltd, priority 2015, dated 2024).
Where “and” joins values, the source holds several entries; their conditions need not be identical. Equal values may be shown once. Read-outs that look alike come from different tables or passages of the source.

Experiment: 24-hour pharmacokinetic study, intravenous route
Format: in vivo, male Sprague Dawley rats
Details: 20 mg/kg IV; for Vd: read-out: Vz
Procedure: A single intravenous 20 mg/kg (corresponding to ˜17.1 mg/kg expressed as the free base corrected for purity) bolus dose of SOC-1 test item formulated in Hartman's solution was administered to three adult male Sprague Dawley rats. A total of 10 blood samples were collected from each rat at time points ranging from pre-dose to 24 hours post-dose. The blood samples were subsequently processed to plasma and analysed for plasma concentrations of SOC-1 using a screening LC-MS/MS method (assay range=50-5000 ng/mL). Pharmacokinetic parameters were estimated from the plasma concentration versus time data by non-compartmental methods using Phoenix 64 WinNonlin® software.
Prior to treatments the rats were subject to surgery to cannulate the jugular vein (for dose administration, IV) and femoral artery (for blood sample collection, IA) with exteriorisation of the cannulas per test facility SOPs. Following recovery from surgery the rats were transferred to a Culex system for dose administration and blood sampling (with both lines tended per test facility SOPs).
The intravenous treatments were administered via the jugular cannula with a dosing volume of 4.0 mL/kg on the day following surgery. The treatments were followed by ˜200 μL vehicle to ensure a full dose was delivered to the animals.
Blood samples (˜250 μl) were collected in lithium heparin tubes from the IA cannula at the following time points: pre-dose, 2, 5, 10, 30, 60 minutes, 2, 4, 8 and 24 hours post-dose
Blood samples were kept on ice immediately after collection to minimize degradation and centrifuged as soon as possible at approximately 4000×rcf for 10 min. Pre-dose samples were centrifuged separately prior to dosing. The plasma was then transferred to polypropylene tubes and stored frozen at −80° C.
Plasma concentrations of SOC-1 were determined using a screening LC-MS/MS method with a following liquid/liquid extraction. Briefly, 50 μL aliquots of the test samples and calibration standards were mixed with 1 mL of hexane:dichloromethane (1:1) for 5 minutes following the addition of 10 μl of internal standard, then centrifuged and the organic phase decanted and dried under nitrogen. The samples were then reconstituted with 0.5 mL of 0.1% formic acid in 30% methanol in deionised water and 0.2 mL transferred to a 96 well plate. A 5 μL aliquot of this sample was then analysed using an ABSciex API 4000 MS/MS coupled to a Shimadzu Prominence HPLC. The HPLC gradients included 0.1% formic acid in deionised water (Mobile Phase A) and 0.1% formic acid in methanol (Mobile Phase B). The LC-MS/MS instrument settings are summarised in Appendix 2. The samples were analysed with calibrated samples (50 to 5000 ng/mL) and concentration data determined by back calculation from the standard curve.
Group mean±standard error values for plasma concentration versus time values were determined using Phoenix 64 WinNonlin software. The following pharmacokinetic parameters were also calculated by non-compartmental methods, using Phoenix 64 WinNonlin software: • Rsq—Coefficient of association for the terminal elimination phase (R2). • Lambda—Terminal elimination rate constant associated with the terminal (log-linear) portion of the curve (1/h). • T1/2—Terminal elimination half-life (h) • C0—Initial concentration at time 0 min (ng/mL) determined by back-extrapolating from the first two measured concentration values. • Tmax—Time to maximum plasma concentration following extravascular administration. • Cmax—Maximum plasma concentration following extravascular administration • AUClast—Area under the curve from the time of dosing (Dosing time, time 0 min) to the last measurable concentration (ng·h/mL). • AUCinf—AUC from Dosing time extrapolated to infinity, based on the last observed concentration (obs). (ng·h/mL). • AUC % Extrap—Percentage of AUCinf due to extrapolation from time of last measurable concentration to infinity. • Vz—Volume of distribution (L/kg). • Cl—Total body clearance (L/h/kg). […]

[1] = male, Sprague Dawley, rat, in vivo, Mean, N 3
[2] = male, Sprague Dawley, rat, plasma, iv, 20 mg/kg, individual rats

**Q.** Which results are given for `Cl.Cn1ncc2c1Nc1ccccc1NC2` [SOC-1]?
**A.** tolerability, morbidity or mortality: tolerated and there were no findings of morbidity or mortality; Plasma SOC-1 (2 minutes post-dose, individual rats #1-#3): 12600 ng/mL and 16500 ng/mL; Plasma SOC-1 (5 minutes post-dose, individual rats #1-#3): 13100 ng/mL and 12200 ng/mL; Plasma SOC-1 (10 minutes post-dose, individual rats #1-#3): 10900 ng/mL and 11700 ng/mL; Plasma SOC-1 (30 minutes post-dose, individual rats #1-#3): 8790 ng/mL and 8120 ng/mL; Plasma SOC-1 (1 hour (60 minutes) post-dose, individual rats #1-#3): 6480 ng/mL and 6310 ng/mL; Plasma SOC-1 (2 hours post-dose, individual rats #1-#3): 3610 ng/mL and 2980 ng/mL; Plasma SOC-1 (4 hours post-dose, individual rats #1-#3): 115 ng/mL and 286 ng/mL and 97.3 ng/mL; Plasma SOC-1 (8 hours post-dose, individual rats #1-#3): BLOQ^a) (below lower limit of quantitation of 50 ng/mL); Plasma SOC-1 (24 hours post-dose, individual rats #1-#3): BLOQ^a) (below lower limit of quantitation of 50 ng/mL); AUC % Extrap (Mean, N 3): 0.803%; Lambda (Mean, N 3): 1.28 h⁻¹; AUC % Extrap (individual rats): 0.559% and 1.45% and 0.398%; AUCinf (individual rats): 18400 ng·h/mL and 17000 ng·h/mL; AUClast (individual rats): 18100 ng·h/mL and 17000 ng·h/mL; C0 (individual rats): 12600 ng/mL and 20100 ng/mL; Cl (individual rats): 15.5 mL/min/kg and 16.7 mL/min/kg; Lambda (individual rats): 1.33 h⁻¹ and 1.07 h⁻¹ and 1.44 h⁻¹; T1/2 (individual rats): 38.8 min and 29 min; Vz (individual rats): 0.868 L/kg and 0.699 L/kg; AUC(0-inf) [1]: 17000 ng·h/mL; clearance [1]: 16.8 mL/min/kg; half-life [1]: 33 min; C0 (male, Sprague Dawley, rat, in vivo, Mean, N 3, read-out: C0): 18200 ng/mL; Vd [1]: 0.799 L/kg; concentration at 2 min (male, Sprague Dawley, rat, plasma, intravenous, 20 mg/kg, 2 minutes post-dose, individual rats #1-#3, read-out: Plasma SOC-1): 17200 ng/mL; concentration at 5 min (male, Sprague Dawley, rat, plasma, intravenous, 20 mg/kg, 5 minutes post-dose, individual rats #1-#3, read-out: Plasma SOC-1): 11900 ng/mL; concentration at 10 min (male, Sprague Dawley, rat, plasma, intravenous, 20 mg/kg, 10 minutes post-dose, individual rats #1-#3, read-out: Plasma SOC-1): 12800 ng/mL; concentration at 30 min (male, Sprague Dawley, rat, plasma, intravenous, 20 mg/kg, 30 minutes post-dose, individual rats #1-#3, read-out: Plasma SOC-1): 7120 ng/mL; concentration at 1 h (male, Sprague Dawley, rat, plasma, intravenous, 20 mg/kg, 1 hour (60 minutes) post-dose, individual rats #1-#3, read-out: Plasma SOC-1): 5720 ng/mL; concentration at 2 h (male, Sprague Dawley, rat, plasma, intravenous, 20 mg/kg, 2 hours post-dose, individual rats #1-#3, read-out: Plasma SOC-1): 2310 ng/mL; AUC(0-t) (male, Sprague Dawley, rat, plasma, iv, 20 mg/kg, Mean, N 3): 16800 ng·h/mL; AUC(0-inf) [2]: 15500 ng·h/mL; AUC(0-t) [2]: 15400 ng·h/mL; clearance [2]: 18.5 mL/min/kg; half-life [2]: 31.3 min; C0 (male, Sprague Dawley, rat, plasma, iv, 20 mg/kg, individual rats, read-out: C0): 21900 ng/mL; Vd [2]: 0.831 L/kg
